Results on one molecule are retold here after patent US20260274830A1, “DEUTERIUM-SUBSTITUTED PYRIDAZINE BENZOTHIOPHENE COMPOUND AND USE THEREOF” (MEDSHINE DISCOVERY INC., priority 2022, published 2026).

pIC50: −log10 of the molar value.

One data set has as its target T1, NLRP3 (Rattus norvegicus, UniProt D4A523).
T1 construct: Newborn SD rats were used to obtain mixed glial cells from the cerebral cortex; endogenous in cells; host or cells: primary microglia from the cerebral cortex of newborn SD rats, LPS-primed, nigericin-stimulated
Put plainly: LPS-stimulated IL-1β release assay in rat primary microglia. In kind it is cell-based. The conditions noted are these: LPS 50 ng/ml 3 h, compound 0.5 h, Nigericin 0.3 μg/mL 1 h, IL-1β ELISA. For orientation: An ELISA detects its analyte on a solid surface through an enzyme-linked reagent.

The nature of data set [1]: Pharmacokinetic evaluation in beagle dogs in vivo. The arrangement: species or system beagle dog. How it is done:
The pharmacokinetic characteristics of the compound in beagle dogs after oral administration were tested according to the standard protocol. In the experiment, the candidate compound was formulated into clear solutions, and a single intravenous injection and oral administration were given to beagle dogs. The vehicle for intravenous injection and oral administration was a mixed vehicle composed of 5% dimethyl sulfoxide and 95% solutol with a content of 5%. Four male beagle dogs were used in this project. Two beagle dogs were administered via intravenous injections at a dose of 1 mg/kg, and plasma samples were collected at 0.083, 0.25, 0.5, 1, 2, 4, 8, and 24 h post-administration. The other two beagle dogs were administered orally by gavage at a dose of 2 mg/kg, and plasma samples were collected at 0.25, 0.5, 1, 2, 4, 8, and 24 h post-administration. Plasma concentrations were quantitatively analyzed by LC-MS/MS analysis method, and pharmacokinetic parameters such as peak concentration (Cmax), clearance (CL), half-life (T1/2), volume of distribution at steady state (Vdss), area under the drug-time curve (AUC0-last), and bioavailability (F) were calculated.

Data set [2] is described as follows: Pharmacokinetic evaluation in SD rats in vivo. Further details: species or system SD rat. As to the method: (§1) The pharmacokinetic characteristics of the compound in rodents after intravenous injection and oral administration were tested according to the standard protocol. In the experiment, the candidate compound was formulated into clear solutions, and a single intravenous injection and oral administration were given to SD rats. The vehicle for intravenous injection and oral administration was a mixed vehicle composed of 5% dimethyl sulfoxide and 95% solutol with a content of 5%. Four male SD rats were used in this project. Two SD rats were administered via intravenous injections, and plasma samples were collected at 0.083, 0.25, 0.5, 1, 2, 4, 8, and 24 h post-administration. The other two SD rats were administered orally by gavage, and plasma samples were collected at 0.25, 0.5, 1, 2, 4, 8, and 24 h post-administration. Plasma concentrations were quantitatively analyzed by LC-MS/MS analysis method, and pharmacokinetic parameters such as peak concentration (Cmax), clearance (CL), half-life (T1/2), volume of distribution at steady state (Vdss), area under the drug-time curve (AUC0-last), and bioavailability (F) were calculated.
as §1, with “injections at a dose of 2 mg/kg,” for “injections,”, “gavage at a dose of 10 mg/kg,” for “gavage,”

[3] abbreviates: IV and PO, oral bioavailability, oral exposure, half-life, clearance.

T1 sequence (D4A523 whole entry): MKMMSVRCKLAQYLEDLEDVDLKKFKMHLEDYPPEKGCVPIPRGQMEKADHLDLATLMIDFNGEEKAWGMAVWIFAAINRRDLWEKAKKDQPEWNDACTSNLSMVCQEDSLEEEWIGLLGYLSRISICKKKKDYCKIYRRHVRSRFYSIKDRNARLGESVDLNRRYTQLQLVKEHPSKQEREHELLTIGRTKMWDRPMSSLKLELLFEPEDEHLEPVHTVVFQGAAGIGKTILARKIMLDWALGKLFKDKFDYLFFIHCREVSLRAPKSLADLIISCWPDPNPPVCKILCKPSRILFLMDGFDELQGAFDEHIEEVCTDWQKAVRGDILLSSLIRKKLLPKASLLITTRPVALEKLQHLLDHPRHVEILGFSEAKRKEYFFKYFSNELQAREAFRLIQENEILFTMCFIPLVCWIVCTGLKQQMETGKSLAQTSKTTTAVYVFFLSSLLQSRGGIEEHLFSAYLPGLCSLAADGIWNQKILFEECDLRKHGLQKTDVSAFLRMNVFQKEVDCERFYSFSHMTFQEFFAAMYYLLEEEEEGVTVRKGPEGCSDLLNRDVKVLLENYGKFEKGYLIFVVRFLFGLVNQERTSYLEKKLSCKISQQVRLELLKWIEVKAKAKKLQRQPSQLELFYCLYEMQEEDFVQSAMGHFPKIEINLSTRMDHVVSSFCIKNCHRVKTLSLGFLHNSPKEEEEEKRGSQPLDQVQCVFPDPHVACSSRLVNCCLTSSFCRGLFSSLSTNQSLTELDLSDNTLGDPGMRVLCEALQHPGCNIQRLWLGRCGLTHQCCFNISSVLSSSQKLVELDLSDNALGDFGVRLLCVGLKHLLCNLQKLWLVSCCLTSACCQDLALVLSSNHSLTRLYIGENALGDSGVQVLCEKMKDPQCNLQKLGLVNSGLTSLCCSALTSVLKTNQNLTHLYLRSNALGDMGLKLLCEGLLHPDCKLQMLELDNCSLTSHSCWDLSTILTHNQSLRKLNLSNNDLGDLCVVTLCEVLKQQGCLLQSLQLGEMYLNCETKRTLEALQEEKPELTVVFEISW
Experimental for NLRP3: This experiment utilized rat primary microglia to study the inhibitory activity of NLRP3 inhibitors on the secretion of IL-1β in rat primary microglia.
Newborn SD rats were used to obtain mixed glial cells from the cerebral cortex through digestion and separation, and the cells were seeded into culture flasks for cultivation. The culture medium was replaced every 3-4 days, and the cells were cultured for approximately 10 days until they reached full confluence. The microglial cells were then collected through shaking at 37° C. and centrifugation, and were seeded into a 96-well cell culture plate for overnight cultivation. The cells were then transferred to serum-free medium and treated with 50 ng/ml LPS for 3 hours. Different concentrations of the compounds were added for 0.5 hours, followed by the addition of 0.3 μg/mL Nigericin for 1 hour. The supernatant was collected and either stored at −80° C. or directly detected for IL-1β release using an ELISA kit, following the manufacturer's instructions. Data processing involved using 10 μM of the positive compound group as the low value (L) and the DMSO group as the high value (H). The inhibition rate of the compound was calculated using the formula: Inhibition %=(Ave_H-Sample)/(Ave_H−Ave_L)*100, and the IC50 of the compound was calculated using the nonlinear regression equation: Y=Bottom+(Top−Bottom)/(1+10∧((LogIC50−X)*HillSlope)).

Turning to `[2H]C([2H])([2H])N1CCC[C@@H](Nc2cc(C)c(-c3ccc4sccc4c3O)nn2)C1` [Compound II], the negative-log IC50 (pIC50) at NLRP3 was 7.45. Also, in data set [1] (setting [3]), the “pharmacokinetic properties in beagle dogs in vivo (in words)” value is “good pharmacokinetic properties”. Besides, the AUC(0-t) came out at 1920 nM·h in data set [1] (male, dog, plasma, IV 1 mg/kg, read-out: Area under drug-time curve AUC0-last IV); 3110 nM·h in data set [1] (male, dog, plasma, PO 2 mg/kg, read-out: Area under drug-time curve AUC0-last PO); 1870 nM·h in data set [2] (male, rat, plasma, IV 2 mg/kg, read-out: Area under drug-time curve AUC0-last IV); 2350 nM·h in data set [2] (male, rat, plasma, PO 10 mg/kg, read-out: Area under drug-time curve AUC0-last PO). Further, the clearance turned out to be 1.54 L/h/kg in data set [1] (male, dog, plasma, IV 1 mg/kg, read-out: Clearance CL) and 2.84 L/h/kg in data set [2] (male, rat, plasma, IV 2 mg/kg, read-out: Clearance CL). The half-life in data set [1] (male, dog, plasma, IV 1 mg/kg, read-out: Half-life T1/2 (IV) (converted)) is 3.53 h; in data set [2] (male, rat, plasma, IV 2 mg/kg, read-out: Half-life T1/2 (IV) (converted)), 1.82 h. In addition, the Vd stood at 6.9 L/kg in data set [1] (male, dog, plasma, IV 1 mg/kg, read-out: Volume of distribution at steady state Vdss) and 6.99 L/kg in data set [2] (male, rat, plasma, IV 2 mg/kg, read-out: Volume of distribution at steady state Vdss). Besides, the bioavailability in data set [1] (male, dog, plasma, PO 2 mg/kg vs IV 1 mg/kg, read-out: Bioavailability F) was 80.9%; in data set [2] (male, rat, plasma, PO 10 mg/kg vs IV 2 mg/kg, read-out: Bioavailability F) it was 27.1%. The Cmax in data set [1] (male, dog, plasma, oral gavage 2 mg/kg (route not given), read-out: Peak concentration Cmax) was 0.504 µM; in data set [2] (male, rat, plasma, oral gavage 10 mg/kg (route not given), read-out: Peak concentration Cmax), 0.593 µM. Moreover, the “pharmacokinetic properties in SD rats in vivo (in words)” value in data set [2] (setting [3]) is on record as “good pharmacokinetic properties”.

By pIC50 is commonly meant the negative decadic logarithm of the IC50, by convention in mol/L. What is called clearance is a measure of how efficiently the substance is removed, as volume per time. For orientation: bioavailability means the share of a dose that reaches the circulation, judged against a reference dose that is usually intravenous.
